Data reported in US10391080B2, “Ketorolac for the treatment of cancer” (Cipla Limited, priority 2016, dated 2019).
pIC50: −log10 of the molar value.

Tests used:
[1] = system: tumor cell lines of renal cancer; assay: In vitro 3D combination study, clonogenic assay, both cell lines; format: cell-based; conditions: Homo sapiens, A498; compound alone, colony formation in soft agar, range over RXF 1183L and RXF A-498; read-out: Relative IC50, single agent
Description: The objective of this study was to assess anti-tumor efficacy of ketorolac in combination with sunitinib in a 5×5 matrix combination format against tumor cell lines of renal cancer using a clonogenic assay with image analysis as read-out.
The clonogenic assay was carried out in a 96 well plate format using ultra low attachment plates. For each test cells were prepared as described above, and assay plates were prepared as follows: each test well contained a layer of semi-solid medium with tumor cells (50 μl), and a second layer of medium supernatant with or without test compounds (100 μl). The cell layer consisted of 3×10^3 to 1×10^4 tumor cells per well, which were seeded in 50 μl/well cell culture medium (IMDM, supplemented with 20% (v/v) fetal calf serum, 0.01% (w/v) gentamicin, and 0.4% (w/v) agar). The soft agar layer was immediately covered with 90 μl of the same culture medium without agar. After 24 h the test compounds were added after serial dilution in IMDM and transfer in cell culture medium, and left on the cells for the duration of the experiment (continuous exposure, 100 μL total drug overlay). Every plate included six untreated control wells and drug-treated groups in a layout as shown above. […] At the time of maximum colony formation, counts were performed with an automatic image analysis system (Celllnsight NXT, Thermo Scientific). […]

A498 cells = assay: In vivo animal efficacy study, subcutaneous A498 tumor fragments; set-up: species or system female athymic nude mice; conditions: for Mean Tumor Volume / Tumor Growth Inhibition (% TGI): Sunitinib 20 mg/kg p.o. q.d. × 21 (G2)
Description: 10 Healthy female athymic nude mice were recruited for the donor cell inoculation. Animals were subcutaneously injected at flank region with 10 million A498 cells suspended in 200 μl of media and matrigel. Animals were monitored for solid tumor growth. […] Tumors were fragmented in to ˜30 mg size. […] [table] The tumor sizes were measured weekly twice from the date of tumor appearance till the end of the experiment. Tumor size was measured by digital vernier caliper (MITUTOYO) by measuring length (L=longest axis) and width (W=shortest axis). Tumor Volume was calculated using the formula: […] Form the tumor volume data mean tumor volume and % tumor growth inhibition (% TGI) were calculated (SEM=standard error of mean).

Par-4 = conditions: mouse embryonic fibroblast (MEF) cells; cited from earlier work

With `CCN(CC)CCNC(=O)c1c(C)[nH]c(/C=C2\C(=O)Nc3ccc(F)cc32)c1C` [Sunitinib] the pIC50 [1] was 5.34 to 5.82, the “Mean Tumor Volume” value (A498 cells; day 1) was 145.40 mm^3 and the “Tumor Growth Inhibition (% TGI)” value (A498 cells; day 1) was 1.47%. The “Mean Tumor Volume” value (A498 cells; day 6) was 174.90 mm^3, the “Tumor Growth Inhibition (% TGI)” value (A498 cells; day 6) was 47.31% and the “Mean Tumor Volume” value (A498 cells; day 9) was 261.95 mm^3. For the same compound, the “Tumor Growth Inhibition (% TGI)” value (A498 cells; day 9) was 43.52%, the “Mean Tumor Volume” value (A498 cells; day 13) was 340.62 mm^3 and the “Tumor Growth Inhibition (% TGI)” value (A498 cells; day 13) was 44.80%. For the same compound, the “Mean Tumor Volume” value (A498 cells; day 16) was 448.05 mm^3, the “Tumor Growth Inhibition (% TGI)” value (A498 cells; day 16) was 53.39% and the “Mean Tumor Volume” value (A498 cells; day 20) was 630.25 mm^3. For the same compound, the “Tumor Growth Inhibition (% TGI)” value (A498 cells; day 20) was 50.78% and the Maximum tumor inhibition (A498 cells; Sunitinib alone at a dose of 20 mg/kg) was 51%.

In the case of `COc1ccc(C2=N[C@@H](c3ccc(Cl)cc3)[C@@H](c3ccc(Cl)cc3)N2C(=O)N2CCNC(=O)C2)c(OC(C)C)c1` [Nutlin-3a], the PAR-4 secretion (Par-4) is listed as “stimulated PAR-4 secretion at micromolar levels”.
